As a reminder, the IC50 is the point on the concentration scale where inhibition reaches its midpoint.

Data set [1] relates to Trypanosoma brucei. Put plainly: Antitrypanosomal activity against blood stream form of Trypanosoma brucei Lister 427 assessed as inhibition of parasite growth incubated for 48 hrs by MTS assay. It is filed as functional, organism-based. The following applies: Lister 427, 48 h. (Tetrazolium assays rely on reduction of a dye to a coloured formazan, in cell work by metabolically active cells.)

Data set [2] can be described thus: Cytotoxicity against mouse RAW264.7 cells assessed as inhibition of cell growth incubated for 48 hrs by MTT assay. It is filed as toxicity, cell-based.
A short description of data set [3]: Selectivity index, ratio of IC50 for cytotoxicity against mouse RAW264.7 cells to IC50 for antitrypanosomal activity against blood stream form of Trypanosoma brucei Lister 427. Type of data set: toxicity, cell-based. The following applies: read-out: Ratio IC50.
Data set [4] can be described thus: Cytotoxicity against HEK293 cells assessed as inhibition of cell growth incubated for 48 hrs by MTT assay. It is filed as toxicity, cell-based. The note with it: human.
Data set [5] is described as follows: Selectivity index, ratio of IC50 for cytotoxicity against HEK293 cells to IC50 for antitrypanosomal activity against blood stream form of Trypanosoma brucei Lister 427. It is filed as toxicity, cell-based. The note with it: human, read-out: Ratio IC50.
The test system of data set [6] is Trypanosoma brucei. Put plainly: Inhibition of tubulin polymerization in blood stream form of Trypanosoma brucei Lister 427 assessed as reduction in polymerized tubulin level incubated for 12 hrs by Western blot analysis. The following applies: dose 200-1000 nM.

Active and inactive are the calls of the source. The calls are words filed in the database; no cut-off is given here.

Consider `CN(c1ccc(NC(=O)c2cccc(C(=N)N)c2)cc1OCc1ccc(C(F)(F)F)cc1)S(=O)(=O)C(F)(F)F`, for which the IC50 in the data set on Trypanosoma brucei [1] is above 50 µM. In addition, the 50% inhibitory concentration (IC50) at 48 h in data set [2] and in data set [4] was above 500 µM each time. The selectivity ratio in data set [3] turned out to be 10.

Turning to `CCCCCCOc1cc(NC(=O)c2ccc3c(c2)OCO3)ccc1NC(=N)N`, the IC50 with Trypanosoma brucei [1] is above 50 µM. In addition, the IC50 at 48 h in data set [2] was 460 µM; in data set [4], 385 µM. The selectivity ratio in data set [3] is 9.2; in data set [5], below 7.7.

Regarding `CN(c1ccc(NC(=O)c2cccc(C(=N)N)c2)cc1OCc1ccc(C(F)(F)F)cc1)S(=O)(=O)Cc1ccccc1`, in the data set on Trypanosoma brucei [1], the IC50 was determined as 13.8 µM. Moreover, the IC50 at 48 h in data set [2] and in data set [4] was above 500 µM throughout. Moreover, the figures for the selectivity ratio in data set [3] and in data set [5] were 36.3 and above 36.3, respectively.

For `N=C(N)Nc1ccc(NC(=O)c2ccc3c(c2)OCO3)cc1OCc1ccc(C(F)(F)F)cc1`, the IC50 in the data set with Trypanosoma brucei [1] is above 50 µM. Besides, the IC50 at 48 h is 27.2 µM in data set [2] and 344 µM in data set [4]. The selectivity ratio was 0.54 in data set [3] and below 6.87 in data set [5].

For the compound `Cc1ccc(C)c(COc2cc(NC(=O)c3ccc(Cl)c(Cl)c3)ccc2NC(=N)N)c1`, the IC50 in the data set with Trypanosoma brucei [1] turned out to be 27.6 µM. Moreover, the IC50 at 48 h in data set [2] and in data set [4] was above 500 µM throughout. Besides, the selectivity ratio was 18.1 in data set [3] and above 18.1 in data set [5].

As to `CCCCCCOc1cc(NC(=O)c2ccc(OC)cc2)ccc1NC(=N)N`, in the data set with Trypanosoma brucei [1], the IC50 was above 50 µM. The IC50 at 48 h in data set [2] was 259 µM; in data set [4], above 500 µM. The selectivity ratio in data set [3] amounted to 5.17.

Take `CN(c1ccc(NC(=O)c2ccc(C(=N)N)cc2)cc1OCc1ccc(C(F)(F)F)cc1)S(=O)(=O)C(F)(F)F`: the IC50 with Trypanosoma brucei [1] is above 50 µM. In addition, the IC50 at 48 h in data set [2] and in data set [4] was above 500 µM in each case. For the same compound, the selectivity ratio in data set [3] is 10.

`CN(c1ccc(NC(=O)c2cccc(C(=N)N)c2)cc1OCc1ccc(C(=N)N)cc1)S(=O)(=O)Cc1ccccc1`: the IC50 at 48 h in data set [2] was above 500 µM. Besides, the selectivity ratio in data set [3] came out at 50000. In the data set with Trypanosoma brucei [6], the inhibition entry is “Active”.

`CN(c1ccc(NC(=O)c2ccc(C(=N)N)cc2)cc1OCc1ccc(C(F)(F)F)cc1)S(=O)(=O)Cc1ccccc1`: the IC50 in the data set with Trypanosoma brucei [1] was 28.4 µM. In addition, the IC50 at 48 h in data set [2] and in data set [4] was above 500 µM throughout. Moreover, the selectivity ratio in data set [3] is 17.6; in data set [5], above 17.6.

For the compound `Cc1ccc(C)c(COc2cc(NC(=O)c3cc(C(F)(F)F)cc(C(F)(F)F)c3)ccc2NC(=N)N)c1`, the IC50 in the data set with Trypanosoma brucei [1] was found to be 21 µM. Besides, the IC50 at 48 h in data set [2] and in data set [4] was above 500 µM throughout. The selectivity ratio was 23.8 in data set [3] and above 23.8 in data set [5].

As for `N=C(N)Nc1ccc(NC(=O)c2ccc3c(c2)OCO3)cc1OCc1cccc(C(F)(F)F)c1`, the 50% inhibitory concentration (IC50) with Trypanosoma brucei [1] came out at 33.7 µM. The IC50 at 48 h in data set [2] came to 101 µM; in data set [4], 313 µM. Besides, the results for the selectivity ratio in data set [3] and in data set [5] were 2.99 and 9.3, respectively.

With `N=C(N)Nc1ccc(NC(=O)c2ccc(Cl)c(Cl)c2)cc1OCc1ccc(C(F)(F)F)cc1`, the IC50 with Trypanosoma brucei [1] is above 50 µM. For the same compound, the IC50 at 48 h in data set [2] and in data set [4] was above 500 µM each time. Moreover, the selectivity ratio in data set [3] was determined as 10.

`CCS(=O)(=O)N(C)c1ccc(NC(=O)c2cccc(C(=N)N)c2)cc1OCc1ccc(C(=N)N)cc1`: the IC50 in the data set with Trypanosoma brucei [1] turned out to be 0.59 µM. The IC50 at 48 h in data set [2] was above 500 µM; in data set [4], 426 µM. Besides, the selectivity ratio in data set [3] is 847; in data set [5], 722.

On to `COc1ccc(C(=O)Nc2ccc(NC(=N)N)c(OCc3cccc(C(F)(F)F)c3)c2)cc1`, for which the IC50 in the data set with Trypanosoma brucei [1] was 27.4 µM. Moreover, the IC50 at 48 h was determined as 102 µM in data set [2] and 263 µM in data set [4]. Besides, the selectivity ratio in data set [3] was 3.71; in data set [5] it was 9.58.

In the case of `N=C(N)Nc1ccc(NC(=O)c2ccc(Cl)c(Cl)c2)cc1OCc1ccccc1C(F)(F)F`, in the data set on Trypanosoma brucei [1], the IC50 came to 15.2 µM. The IC50 at 48 h in data set [2] is 196 µM; in data set [4] it was above 500 µM. The selectivity ratio is 12.8 in data set [3] and above 32.8 in data set [5].

On to `N=C(N)Nc1ccc(NC(=O)c2cc(C(F)(F)F)cc(C(F)(F)F)c2)cc1OCc1ccccc1C(F)(F)F`, for which the IC50 in the data set on Trypanosoma brucei [1] was determined as 45.1 µM. Also, the IC50 at 48 h is 481 µM in data set [2] and above 500 µM in data set [4]. Also, the selectivity ratio was 10.7 in data set [3] and above 11.1 in data set [5].

With `N=C(N)Nc1ccc(NC(=O)c2cc(C(F)(F)F)cc(C(F)(F)F)c2)cc1OCc1ccc(C(F)(F)F)cc1`, the IC50 in the data set on Trypanosoma brucei [1] was determined as 16.9 µM. Besides, the IC50 at 48 h in data set [2] is above 500 µM; in data set [4], 416 µM. In addition, the values for the selectivity ratio in data set [3] and in data set [5] were 29.6 and 24.6, respectively.

As to `N=C(N)Nc1ccc(NC(=O)c2ccc(C(F)(F)F)cc2C(F)(F)F)cc1OCc1ccc(C(F)(F)F)cc1`, in the data set on Trypanosoma brucei [1], the IC50 came out at 18.2 µM. The figures for the IC50 at 48 h in data set [2] and in data set [4] were above 500 µM and 286 µM, respectively. Further, the results for the selectivity ratio in data set [3] and in data set [5] were 27.5 and 15.7, respectively.

On to `Cc1ccc(C(F)(F)F)c(COc2cc(NC(=O)c3cccc(C(=N)N)c3)ccc2N(C)S(=O)(=O)C(F)(F)F)c1`, for which the half-inhibitory concentration (IC50) with Trypanosoma brucei [1] was determined as 0.22 µM. Also, the IC50 at 48 h amounted to 0.86 µM in data set [2] and 25 µM in data set [4]. For the same compound, the selectivity ratio in data set [3] came out at 3.9; in data set [5] it was 114.

For the compound `COc1ccc(C(=O)Nc2ccc(NC(=N)N)c(OCc3cc(C)ccc3C)c2)cc1`, in the data set with Trypanosoma brucei [1], the IC50 was 47.9 µM. Further, the IC50 at 48 h in data set [2] and in data set [4] was above 500 µM throughout. Further, the selectivity ratio is 10.4 in data set [3] and above 10.4 in data set [5].

`COc1ccc(OC)c(COc2cc(NC(=O)c3cc(C(F)(F)F)cc(C(F)(F)F)c3)ccc2NC(=N)N)c1`: in the data set with Trypanosoma brucei [1], the IC50 is above 50 µM. Also, the IC50 at 48 h was 123 µM in data set [2] and 307 µM in data set [4]. Moreover, the selectivity ratio is 2.45 in data set [3] and below 6.13 in data set [5].

Regarding `CN(c1ccc(NC(=O)c2cccc(C(=N)N)c2)cc1OCc1cccc(C(F)(F)F)c1)S(=O)(=O)Cc1ccccc1`, the IC50 in the data set with Trypanosoma brucei [1] was 15.3 µM. Moreover, the IC50 at 48 h in data set [2] and in data set [4] was above 500 µM in each case. Further, the values for the selectivity ratio in data set [3] and in data set [5] were 32.6 and above 32.6, respectively.

On to `COc1ccc(C(=O)Nc2ccc(NC(=N)N)c(OCc3cc(OC)ccc3OC)c2)cc1`, for which the IC50 in the data set on Trypanosoma brucei [1] was 0.899 µM. The IC50 at 48 h in data set [2] is 190 µM; in data set [4] it was above 500 µM. Moreover, the results for the selectivity ratio in data set [3] and in data set [5] were 211 and above 556, respectively.

On to `COc1ccc(OC)c(COc2cc(NC(=O)c3ccc4c(c3)OCO4)ccc2NC(=N)N)c1`, for which the IC50 in the data set on Trypanosoma brucei [1] is above 50 µM. In addition, the IC50 at 48 h in data set [2] and in data set [4] was above 500 µM each time. Moreover, the selectivity ratio in data set [3] was determined as 10.

On to `N=C(N)Nc1ccc(NC(=O)c2ccc3c(c2)OCO3)cc1OCc1ccccc1C(F)(F)F`, for which the IC50 in the data set with Trypanosoma brucei [1] is above 50 µM. Moreover, the results for the half-inhibitory concentration (IC50) at 48 h in data set [2] and in data set [4] were above 500 µM and 450 µM, respectively. In addition, the selectivity ratio is 10 in data set [3] and below 9 in data set [5].

The record behind these values is ChEMBL document CHEMBL5143658, “Synthesis and biological evaluation of imidamide analogs as selective anti-trypanosomal agents” (Bioorg Med Chem, 2022).
